± gives the expanded uncertainty stated by the source.
What was measured:
[1] = 298.15 K; 101.33 kPa; Liquid; Vibrating tube method
[2] = refractive index (Na D-line) (dimensionless); details: 298.15 K; 101.33 kPa; Liquid; Standard Abbe refractometry
[3] = xn = mol fraction of the nth substance listed; details: 298.15 K, 101 kPa, Liquid, Vibrating tube method
[4] = refractive index (Na D-line) (dimensionless); xn = mol fraction of the nth substance listed; details: 298.15 K, 101 kPa, Liquid, Standard Abbe refractometry

CCCCCC [hexane]
Details	mass density [kg/m3]	refractive index
[1]	655.1 ± 0.3	–
[2]	–	1.3724 ± 0.0004

CC(C)=O [acetone] + O
Details	mass density, [3] [kg/m3]	refractive index, [4]
x1 = 0.0502	977 ± 0.1	1.3422 ± 0.0004
x1 = 0.0993	959.3 ± 0.1	1.3499 ± 0.0004
x1 = 0.1502	942.2 ± 0.1	1.3549 ± 0.0004
x1 = 0.1996	926.6 ± 0.1	1.3583 ± 0.0004
x1 = 0.2496	911.8 ± 0.1	1.3604 ± 0.0004
x1 = 0.3007	897.6 ± 0.2	1.3616 ± 0.0004
x1 = 0.3507	884.8 ± 0.2	1.3621 ± 0.0004
x1 = 0.4003	873.1 ± 0.2	1.3623 ± 0.0004
x1 = 0.4509	862.1 ± 0.2	1.3621 ± 0.0004
x1 = 0.4992	852.5 ± 0.2	1.3618 ± 0.0004
x1 = 0.5489	843.5 ± 0.2	1.3614 ± 0.0004
x1 = 0.599	835 ± 0.2	1.3609 ± 0.0004
x1 = 0.6506	827 ± 0.2	1.3603 ± 0.0004
x1 = 0.6996	819.9 ± 0.2	1.3602 ± 0.0004
x1 = 0.7014	819.6 ± 0.2	1.3597 ± 0.0004
x1 = 0.7467	813.4 ± 0.2	1.3591 ± 0.0004
x1 = 0.8011	806.2 ± 0.2	1.3592 ± 0.0004
x1 = 0.8015	806.3 ± 0.2	1.3583 ± 0.0004
x1 = 0.846	800.8 ± 0.2	1.3577 ± 0.0004
x1 = 0.8969	794.9 ± 0.2	1.3569 ± 0.0004
x1 = 0.9005	794.5 ± 0.2	1.3572 ± 0.0004
x1 = 0.9451	789.9 ± 0.2	1.3564 ± 0.0004

CC(C)=O [acetone] + CCCCCC
Details	mass density, [3] [kg/m3]	refractive index, [4]
x1 = 0.0504	657.2 ± 0.3	1.3709 ± 0.0004
x1 = 0.0994	659.7 ± 0.3	1.3699 ± 0.0004
x1 = 0.1511	662.9 ± 0.3	1.3688 ± 0.0004
x1 = 0.1999	666.3 ± 0.3	1.3679 ± 0.0004
x1 = 0.2497	670.1 ± 0.3	1.3668 ± 0.0004
x1 = 0.3006	674.4 ± 0.3	1.366 ± 0.0004
x1 = 0.3518	679 ± 0.3	1.3651 ± 0.0004
x1 = 0.4006	683.7 ± 0.3	1.3643 ± 0.0004
x1 = 0.4476	688.7 ± 0.3	1.3635 ± 0.0004
x1 = 0.4995	694.5 ± 0.3	1.3627 ± 0.0004
x1 = 0.5498	700.7 ± 0.3	1.3618 ± 0.0004
x1 = 0.5976	707 ± 0.3	1.3611 ± 0.0004
x1 = 0.6479	714.1 ± 0.3	1.3603 ± 0.0004
x1 = 0.697	721.7 ± 0.3	1.3595 ± 0.0004
x1 = 0.7503	730.5 ± 0.3	1.3587 ± 0.0004
x1 = 0.7998	739.4 ± 0.3	1.358 ± 0.0004
x1 = 0.8499	749.1 ± 0.3	1.3572 ± 0.0004
x1 = 0.8979	759.3 ± 0.3	1.3568 ± 0.0004
x1 = 0.9507	771.7 ± 0.3	1.3561 ± 0.0004

O [water]
Details	refractive index
[2]	1.3325 ± 0.0004

CC(C)=O [acetone]
Details	mass density [kg/m3]	refractive index
[1]	784.9 ± 0.27	–
[2]	–	1.356 ± 0.0004
